{"source": "ChEMBL document CHEMBL4257227", "about": "“Deubiquitinase inhibitors and methods for use of the same” (2016)", "key": {"A-375 [1]": {"test_system": "A-375", "test": "Induction of apoptosis in human A375 cells with USP5 knock down by annexin V staining based flow cytometry", "assay_type": "functional"}, "A-375 [2]": {"test_system": "A-375", "test": "Induction of apoptosis in human A375 cells with USP5 knock down assessed as increase in p53 protein expression", "assay_type": "functional, cell-based"}, "A-375 [3]": {"test_system": "A-375", "test": "Induction of apoptosis in human A375 cells with USP5 knock down assessed as increase in FAS protein expression", "assay_type": "functional, cell-based"}, "A-375 [4]": {"test_system": "A-375", "test": "Induction of apoptosis in human A375 cells with USP5 knock down assessed as increase in Bax protein expression", "assay_type": "functional, cell-based"}, "A-375 [5]": {"test_system": "A-375", "test": "Induction of apoptosis in human A375 cells with USP5 knock down assessed as increase in Bid protein expression", "assay_type": "functional, cell-based"}, "A-375 [6]": {"test_system": "A-375", "test": "Induction of apoptosis in human A375 cells with USP5 knock down assessed as increase in PARP cleavage", "assay_type": "functional, cell-based"}, "A-375 [7]": {"test_system": "A-375", "test": "Induction of apoptosis in human A375 cells with USP5 and p53 knock down assessed as increase in p53 protein expression", "assay_type": "functional, cell-based"}, "A-375 [8]": {"test_system": "A-375", "test": "Induction of apoptosis in human A375 cells with USP5 and p53 knock down assessed as increase in FAS protein expression", "assay_type": "functional, cell-based"}, "A-375 [9]": {"test_system": "A-375", "test": "Induction of apoptosis in human A375 cells with USP5 and p53 knock down assessed as increase in Bax protein expression", "assay_type": "functional, cell-based"}, "A-375 [10]": {"test_system": "A-375", "test": "Induction of apoptosis in human A375 cells with USP5 and p53 knock down assessed as increase in Bid protein expression", "assay_type": "functional, cell-based"}, "A-375 [11]": {"test_system": "A-375", "test": "Induction of apoptosis in human A375 cells with USP5 and p53 knock down assessed as increase in PARP cleavage", "assay_type": "functional, cell-based"}, "SK-MEL19 [12]": {"test_system": "SK-MEL19", "test": "Increase in protein ubiquitination in human SK-MEL-19 cells after 24 hrs", "assay_type": "functional, cell-based"}, "SK-MEL19 [13]": {"test_system": "SK-MEL19", "test": "Increase in FAS protein expression in human SK-MEL-19 cells after 24 hrs", "assay_type": "functional, cell-based"}, "SK-MEL19 [14]": {"test_system": "SK-MEL19", "test": "Increase in FASBax protein expression in human SK-MEL-19 cells after 24 hrs", "assay_type": "functional, cell-based"}, "SK-MEL19 [15]": {"test_system": "SK-MEL19", "test": "Induction of apoptosis in human SK-MEL-19 cells assessed as increase in caspase 8 cleavage after 48 to 72 hrs", "assay_type": "functional, cell-based"}, "SK-MEL19 [16]": {"test_system": "SK-MEL19", "test": "Induction of apoptosis in human SK-MEL-19 cells assessed as increase in PARP cleavage after 48 to 72 hrs", "assay_type": "functional, cell-based"}, "SK-MEL19 [17]": {"test_system": "SK-MEL19", "test": "Induction of apoptosis in human SK-MEL-19 cells assessed as increase in Bid protein level after 48 to 72 hrs", "assay_type": "functional, cell-based"}, "SK-MEL19 [18]": {"test_system": "SK-MEL19", "test": "Reduction in DRS levels in human SK-MEL-19 cells", "assay_type": "functional, cell-based"}, "A-375 [19]": {"test_system": "A-375", "test": "Induction of FAS protein expression in Vemurafenib resistant human A375 cells", "assay_type": "functional, cell-based"}, "A-375 [20]": {"test_system": "A-375", "test": "Ratio of IC50 for human A375 cells with USP5 knock down to IC50 for human A375 cells", "assay_type": "functional"}, "[21]": {"test": "Half life in ip dosed Balb/c mouse by LC-MS analysis", "assay_type": "ADME, organism-based", "settings": "in vivo"}, "[22]": {"test": "Plasma concentration in Balb/c mouse at 5 mg/kg, iv after 0.5 hrs by LC-MS analysis", "assay_type": "ADME, organism-based"}, "[23]": {"test": "Plasma concentration in Balb/c mouse at 5 mg/kg, iv after 2 hrs by LC-MS analysis", "assay_type": "ADME, organism-based"}, "[24]": {"test": "Plasma concentration in Balb/c mouse at 5 mg/kg, iv after 4 hrs by LC-MS analysis", "assay_type": "ADME, organism-based"}, "[25]": {"test": "Plasma concentration in Balb/c mouse at 5 mg/kg, iv after 7 hrs by LC-MS analysis", "assay_type": "ADME, organism-based"}, "[26]": {"test": "AUClast in Balb/c mouse at 5 mg/kg, iv by LC-MS analysis", "assay_type": "ADME, organism-based", "parameters": "dose 5 mg/kg, time 0 - last, route intravenous", "settings": "in vivo"}, "[27]": {"test": "Plasma concentration in Balb/c mouse at 10 mg/kg, po after 0.5 hrs by LC-MS analysis", "assay_type": "ADME, organism-based"}, "[28]": {"test": "Plasma concentration in Balb/c mouse at 10 mg/kg, po after 2 hrs by LC-MS analysis", "assay_type": "ADME, organism-based"}, "[29]": {"test": "Plasma concentration in Balb/c mouse at 10 mg/kg, po after 7 hrs by LC-MS analysis", "assay_type": "ADME, organism-based"}, "[30]": {"test": "AUClast in Balb/c mouse at 10 mg/kg, po by LC-MS analysis", "assay_type": "ADME, organism-based", "parameters": "dose 10 mg/kg, route oral, time 0 - last", "settings": "in vivo"}, "[31]": {"test": "Plasma concentration in Balb/c mouse at 10 mg/kg, po after 4 hrs by LC-MS analysis", "assay_type": "ADME, organism-based"}}, "note": "The source made the active and inactive calls. The rule behind the calls is not given here.", "data": [{"smiles": "CCCS(=O)(=O)Nc1ccc(F)c(C(=O)c2c[nH]c3ncc(-c4ccc(Cl)cc4)cc23)c1F", "note": "[VEMURAFENIB]", "values": [{"measurement": "fold change (FC)", "setting": "A-375 [1]", "value": ">3"}, {"measurement": "Activity", "setting": "A-375 [2]", "value": "Active"}, {"measurement": "Activity", "setting": "A-375 [3]", "value": "Active"}, {"measurement": "Activity", "setting": "A-375 [4]", "value": "Active"}, {"measurement": "Activity", "setting": "A-375 [5]", "value": "Active"}, {"measurement": "Activity", "setting": "A-375 [6]", "value": "Active"}, {"measurement": "Activity", "setting": "A-375 [7]", "value": "inactive"}, {"measurement": "Activity", "setting": "A-375 [8]", "value": "inactive"}, {"measurement": "Activity", "setting": "A-375 [9]", "value": "inactive"}, {"measurement": "Activity", "setting": "A-375 [10]", "value": "inactive"}, {"measurement": "Activity", "setting": "A-375 [11]", "value": "inactive"}, {"measurement": "Activity", "setting": "SK-MEL19 [12]", "value": "Active"}, {"measurement": "Activity", "setting": "SK-MEL19 [13]", "value": "Active"}, {"measurement": "Activity", "setting": "SK-MEL19 [14]", "value": "Active"}, {"measurement": "Activity", "setting": "SK-MEL19 [15]", "value": "Active"}, {"measurement": "Activity", "setting": "SK-MEL19 [16]", "value": "Active"}, {"measurement": "Activity", "setting": "SK-MEL19 [17]", "value": "Active"}, {"measurement": "Activity", "setting": "SK-MEL19 [18]", "value": "Active"}, {"measurement": "Activity", "setting": "A-375 [19]", "value": "inactive"}, {"measurement": "Ratio IC50", "setting": "A-375 [20]", "value": 2}]}, {"smiles": "CCCC(NC(=O)/C(C#N)=C/c1ccc2cccnc2n1)c1ccccc1", "note": "(stereo unspecified)", "values": [{"measurement": "half-life", "setting": "[21]", "value": "30 to 60", "unit": "min"}, {"measurement": "concentration at 0.5 h", "setting": "[22]", "value": "301 to 397", "unit": "ng/mL"}, {"measurement": "concentration at 2 h", "setting": "[23]", "value": "79.6 to 99.1", "unit": "ng/mL"}, {"measurement": "concentration at 4 h", "setting": "[24]", "value": "33.4 to 63.1", "unit": "ng/mL"}, {"measurement": "concentration at 7 h", "setting": "[25]", "value": "33.7 to 71.4", "unit": "ng/mL"}, {"measurement": "AUC(0-t)", "setting": "[26]", "value": "692 to 993", "unit": "ng·h/mL"}, {"measurement": "concentration at 0.5 h", "setting": "[27]", "value": "50.8 to 117", "unit": "ng/mL"}, {"measurement": "concentration at 2 h", "setting": "[28]", "value": "10.6 to 40.6", "unit": "ng/mL"}, {"measurement": "concentration at 7 h", "setting": "[29]", "value": "11.4 to 15.9", "unit": "ng/mL"}, {"measurement": "AUC(0-t)", "setting": "[30]", "value": "126 to 280", "unit": "ng·h/mL"}, {"measurement": "concentration at 4 h", "setting": "[31]", "value": "13.3 to 30", "unit": "ng/mL"}]}]}
